# Test results as given in paper PMC6982996, “Discovery of [1,2,4]Triazole Derivatives as New Metallo-β-Lactamase Inhibitors” (Molecules, 2019).
# Key:
# Format in all cases: biochemical
# NDM-1 = biological target: T1, NDM-1 (Klebsiella pneumoniae, UniProt C7C422); test: NDM-1 inhibition assay (FC5 fluorogenic substrate); conditions: mean ± SD (n = 3)
# T1 construct: Li's Laboratory, Sichuan University (collaborator, a gift and not a purchase)
# Experimental: (§1) Then, we tested all the target compounds against other B1 MBL enzymes, including NDM-1, IMP-1, VIM-1, and VIM-5 (Table 1); all the assay conditions (including enzyme/substrate concentrations) are the same as that previously used. […]. […].
# (§2) All the target compounds were freshly prepared in 100 mM DMSO stock solutions. All the MBL and SBL enzymes used in this study were obtained from our collaborator, Li’s Laboratory in Sichuan University. Each compound was initially evaluated for inhibitory activity to MBL and SBL enzymes at 100 and 10 μM, by preincubation with the appropriate amount of enzymes in the assay buffer for 10 min, followed by adding the substrate FC5 to initiate the reactions, and monitoring the fluorescence at λex of 380 nm and λem of 460 nm. The IC50 values for the compounds (with 10 different concentrations in threefold dilution) were further determined. All determinations were tested in triplicate. The IC50 values were obtained from the plot of activity versus inhibitor concentration by using the GraphPad Prism software.
# VIM-1 = biological target: T2, VIM-1 (Pseudomonas aeruginosa, UniProt A0A0F7KYQ8); test: VIM-1 inhibition assay (FC5 fluorogenic substrate)
# T2 construct: Li's Laboratory, Sichuan University (collaborator, a gift and not a purchase)
# Experimental: as §1, §2
# VIM-5 = VIM-5 inhibition assay (FC5 fluorogenic substrate); conditions: mean ± SD (n = 3)
# Experimental: as §1, §2
# VIM-2 = biological target: T3, VIM-2 (Escherichia coli, UniProt Q5U7L7); test: VIM-2 inhibition assay (FC5 fluorogenic substrate); conditions: for IC50: 10 concentrations in threefold dilution, triplicate, read-out: IC50 against VIM-2; for inhibition at 10 µM / inhibition at 100 µM: mean ± SD (n = 3)
# T3 construct: Li's Laboratory, Sichuan University (collaborator, a gift and not a purchase)
# Experimental: as §2
# IMP-1 = biological target: T4, IMP-1 (Serratia marcescens, UniProt P52699); test: IMP-1 inhibition assay (FC5 fluorogenic substrate); conditions: for inhibition at 10 µM / inhibition at 100 µM: mean ± SD (n = 3); for IC50: 10 concentrations in threefold dilution, triplicate, read-out: IC50 against IMP-1
# T4 construct: Li's Laboratory, Sichuan University (collaborator, a gift and not a purchase)
# Experimental: as §1, §2
# T4 sequence (P52699 19-246 limits assumed): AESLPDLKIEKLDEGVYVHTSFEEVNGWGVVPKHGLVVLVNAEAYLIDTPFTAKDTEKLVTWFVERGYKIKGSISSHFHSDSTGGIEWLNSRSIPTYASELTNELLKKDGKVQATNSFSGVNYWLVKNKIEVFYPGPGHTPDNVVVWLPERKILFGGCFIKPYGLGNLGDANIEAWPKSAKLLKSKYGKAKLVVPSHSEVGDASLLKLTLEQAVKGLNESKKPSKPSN
# T1 sequence (C7C422 29-270, looked up, species assumed): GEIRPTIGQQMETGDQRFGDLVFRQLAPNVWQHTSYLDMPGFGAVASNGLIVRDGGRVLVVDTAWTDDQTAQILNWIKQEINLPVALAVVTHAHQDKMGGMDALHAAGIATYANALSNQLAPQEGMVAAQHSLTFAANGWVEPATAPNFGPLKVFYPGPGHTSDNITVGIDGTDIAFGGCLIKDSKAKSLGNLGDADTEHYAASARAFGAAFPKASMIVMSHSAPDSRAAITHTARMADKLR
Structure (SMILES),inhibition at 10 µM (NDM-1) [%],inhibition at 100 µM (NDM-1) [%],inhibition at 100 µM (VIM-1; mean ± SD (n = 3)) [%],IC50 (VIM-2) [µM],inhibition at 10 µM (VIM-2) [%],inhibition at 100 µM (VIM-2) [%],inhibition at 10 µM (IMP-1) [%],inhibition at 100 µM (IMP-1) [%],"IC50 (VIM-1; 10 concentrations in threefold dilution, triplicate, read-out: IC50 against VIM-1) [µM]",IC50 (IMP-1) [µM],"inhibition at 10 µM (VIM-1; @ 10 μM, mean ± SD (n = 3)) [%]",Inhibition % VIM-5 (VIM-5; @ 100 μM),Inhibition % VIM-5 (VIM-5; @ 10 μM) [%]
"c1ccc(-c2nnc3n2CCCS3)cc1 [5a, 3-Phenyl-6,7-dihydro-5H-[1,2,4]triazolo[3,4-b][1,3]thiazine]",3,29 ± 1,29 ± 2,~179,17,~50,–,–,–,–,–,1 ± 1/– %,–
"Cc1ccccc1-c1nnc2n1CCCS2 [5b, 3-(O-Tolyl)-6,7-dihydro-5H-[1,2,4]triazolo[3,4-b][1,3]thiazine]",27,32 ± 4,21 ± 3,–,34,45 ± 5,21,25 ± 1,–,–,–,12 ± 2/– %,–
"Brc1ccccc1-c1nnc2n1CCCS2 [5c, 3-(2-Bromophenyl)-6,7-dihydro-5H-[1,2,4]triazolo[3,4-b][1,3]thiazine]",17,8 ± 1,19 ± 2,–,26,43 ± 5,16,15 ± 1,–,–,–,13 ± 2/– %,–
"COc1ccccc1-c1nnc2n1CCCS2 [5d, 3-(2-Methoxyphenyl)-6,7-dihydro-5H-[1,2,4]triazolo[3,4-b][1,3]thiazine]",6,15 ± 1,27 ± 2,–,16,39 ± 3,–,–,–,–,–,7 ± 1/– %,–
"Fc1cccc(-c2nnc3n2CCCS3)c1 [5e, 3-(3-Fluorophenyl)-6,7-dihydro-5H-[1,2,4]triazolo[3,4-b][1,3]thiazine]",20,10 ± 2,22 ± 3,–,15,34 ± 3,4,8 ± 1,–,–,–,6 ± 1/– %,–
"Clc1cccc(-c2nnc3n2CCCS3)c1 [5f, 3-(3-Chlorophenyl)-6,7-dihydro-5H-[1,2,4]triazolo[3,4-b][1,3]thiazine]",22,17 ± 1,32 ± 1,–,16,42 ± 2,–,–,–,–,–,−9 ± 2/– %,–
"Ic1cccc(-c2nnc3n2CCCS3)c1 [5h, 3-(3-Iodophenyl)-6,7-dihydro-5H-[1,2,4]triazolo[3,4-b][1,3]thiazine]",10,9 ± 1,27 ± 3,–,7,33 ± 2,–,–,–,–,–,−5 ± 2/– %,–
"FC(F)(F)c1cccc(-c2nnc3n2CCCS3)c1 [5i, 3-(3-(Trifluoromethyl)phenyl)-6,7-dihydro-5H-[1,2,4]triazolo[3,4-b][1,3]thiazine]",9,26 ± 1,29 ± 3,> 100,35,52 ± 4,11,12 ± 1,–,–,–,21 ± 2/– %,–
"Fc1ccc(-c2nnc3n2CCCS3)cc1 [5j, 3-(4-Fluorophenyl)-6,7-dihydro-5H-[1,2,4]triazolo[3,4-b][1,3]thiazine]",23 ± 2,23 ± 2,27 ± 1,–,32,34 ± 3,13,8 ± 1,–,–,–,14 ± 1/– %,–
"Clc1ccc(-c2nnc3n2CCCS3)cc1 [5k, 3-(4-Chlorophenyl)-6,7-dihydro-5H-[1,2,4]triazolo[3,4-b][1,3]thiazine]",17,14 ± 1,28 ± 2,47.2,58,84 ± 6,5,7 ± 1,–,–,–,12 ± 1/– %,–
"Ic1ccc(-c2nnc3n2CCCS3)cc1 [5m, 3-(4-Iodophenyl)-6,7-dihydro-5H-[1,2,4]triazolo[3,4-b][1,3]thiazine]",4,1 ± 1,34 ± 1,> 100,44,78 ± 5,–,–,–,–,–,2 ± 1/– %,–
"FC(F)(F)c1ccc(-c2nnc3n2CCCS3)cc1 [5n, 3-(4-(Trifluoromethyl)phenyl)-6,7-dihydro-5H-[1,2,4]triazolo[3,4-b][1,3]thiazine]",3,8 ± 1,61 ± 3,53.2,43,82 ± 4,–,–,> 100,–,–,−10 ± 2/– %,–
"CC(C)(C)c1ccc(-c2nnc3n2CCCS3)cc1 [5o, 3-(4-(Tert-butyl)phenyl)-6,7-dihydro-5H-[1,2,4]triazolo[3,4-b][1,3]thiazine]",9,11 ± 1,27 ± 2,–,22,23 ± 4,15,63 ± 1,–,> 100,–,15 ± 1/– %,–

# Now from value to molecule, other results behind:
inhibition at 10 µM (NDM-1) [%],inhibition at 100 µM (NDM-1) [%],inhibition at 100 µM (VIM-1; mean ± SD (n = 3)) [%],IC50 (VIM-2) [µM],inhibition at 10 µM (VIM-2) [%],inhibition at 100 µM (VIM-2) [%],inhibition at 10 µM (IMP-1) [%],inhibition at 100 µM (IMP-1) [%],"IC50 (VIM-1; 10 concentrations in threefold dilution, triplicate, read-out: IC50 against VIM-1) [µM]",IC50 (IMP-1) [µM],"inhibition at 10 µM (VIM-1; @ 10 μM, mean ± SD (n = 3)) [%]",Structure (SMILES),Inhibition % VIM-5 (VIM-5; @ 100 μM),Inhibition % VIM-5 (VIM-5; @ 10 μM) [%]
22,16 ± 2,19 ± 2,53.8,42,71 ± 6,-5,10 ± 1,–,–,–,"Cc1c(-c2nnc3n2CCCS3)cccc1[N+](=O)[O-] [5p, 3-(2-Methyl-3-nitrophenyl)-6,7-dihydro-5H-[1,2,4]triazolo[3,4-b][1,3]thiazine]",15 ± 1/– %,–
20,11 ± 1,19 ± 1,–,26,45 ± 1,3,9 ± 1,–,–,–,"c1ccc(-c2nnc3n2CCCS3)nc1 [5q, 3-(Pyridin-2-yl)-6,7-dihydro-5H-[1,2,4]triazolo[3,4-b][1,3]thiazine]",14 ± 1/– %,–
9,4 ± 1,25 ± 2,–,6,21 ± 3,–,–,–,–,–,"c1ccc(Cc2nnc3n2CCCS3)cc1 [5r, 3-Benzyl-6,7-dihydro-5H-[1,2,4]triazolo[3,4-b][1,3]thiazine]",8 ± 1/– %,–
29,28 ± 3,29 ± 2,67.2,50,80 ± 3,9,4 ± 1,–,–,–,"Brc1ccc(-c2nnc3n2CCS3)cc1 [5s, 3-(4-Bromophenyl)-5,6-dihydrothiazolo[2,3-c][1,2,4]triazole]",14 ± 2/– %,–
13,23 ± 2,14 ± 2,> 100,40,75 ± 4,–,–,–,–,–,"CC(=O)Nc1ccc(Nc2ccc(-c3nnc4n3CCCS4)cc2)cc1 [5t, N-(4-((4-(6,7-dihydro-5H-[1,2,4]triazolo[3,4-b][1,3]thiazin-3-yl)phenyl)amino)phenyl)acetamide]",31 ± 2/– %,–
16,15 ± 1,24 ± 3,–,22,32 ± 4,6,5 ± 1,–,–,–,"c1coc(-c2nnc3n2CCCS3)c1 [10a, 3-(Furan-2-yl)-6,7-dihydro-5H-[1,2,4]triazolo[3,4-b][1,3]thiazine]",11 ± 1/– %,–
8,12 ± 2,30 ± 2,–,16,30 ± 3,27,57 ± 6,–,> 100,32,"c1csc(-c2nnc3n2CCCS3)c1 [10b, 3-(Thiophen-2-yl)-6,7-dihydro-5H-[1,2,4]triazolo[3,4-b][1,3]thiazine]",18 ± 2%,21 ± 2
21,26 ± 2,25 ± 3,> 100,35,57 ± 5,5,30 ± 3,–,–,–,"Oc1ccccc1-c1nnc2n1CCCS2 [compound 6, 2-(6,7-Dihydro-5H-[1,2,4]triazolo[3,4-b][1,3]thiazin-3-yl)phenol]",10 ± 2/– %,–
10,7 ± 1,22 ± 3,–,21,26 ± 2,18,15 ± 2,–,–,–,"O=C(O)c1ccccc1-c1nnc2n1CCCS2 [compound 14, 2-(6,7-Dihydro-5H-[1,2,4]triazolo[3,4-b][1,3]thiazin-3-yl)benzoic acid]",11 ± 1/– %,–
